Source: US5554631A, “5-pyrrolyl-6-halogeno-2-pyridylmethylsulfinyl benzimidazole derivatives” (Il-Yang Pharm. Co., Ltd., priority 1994, dated 1996)

Experiments:
[1] = system: ICR (male, female) mouse; test: in vivo; conditions: mouse
Description: (§1) Five weeks aged ICR (male, female) mouse were pre-bred in the breeding cage for one week and then the animals showing a smooth gain in body weight were randomly selected and used in this test. The amount to be administered to the test animals was established on the basis of the maximum dose of 5,000 mg/kg with the common ratio of 1.5.
(§2) The test compounds in a powder were suspended in 0.5% methylcellulose and administered per oral using a lml syringe. The other specific conditions for administration are described in the following.
(§3) In the above test, the control group received only 0.5% methylcellulose.
(§4) (1) Clinical symptoms and death of test animals
(§5) The clinical symptoms and death of test animals caused by the test compounds were recorded immediately after administration of the test compounds and during the overall test period.

[2] = in vivo; conditions: mouse, in vivo, po
Description: as §1, §2, §3, §4, §5

[3] = system: acidity; test: Inhibition of acidity (total acid output), Shay method; format: in vivo, SD male rats; conditions: 5 h; for Volume (inhibition of acidity) / Inhibition rate, acidity: intraduodenal, rat; for Inhibition rate, acidity: vs normal group
Description: (§6) The specific test methods are as follows.
(§7) SD male rats (200±20 g) were fasted for 24 hours, except for water, and then anesthesized with ether. The abdomen of rats was incised and then the pylorus was ligated. The test compounds were suspended or dissolved in […] (carboxymethylcellulose) and injected into duodenum. After the abdomen was suctured, the rats were allowed to stand for 5 hours and then sacrificed with ether. The stomach was removed from rats and the gastric juices were collected. The gastric juice was centrifuged with 10,000×g for 10 minutes at 4° C. to remove the precipitate. The amount of gastric juice and acidity were determined using pH 7.0 end point assay with 0.02N NaOH and then the total acid output was calculated.

[4] = target: T1, H^+ /K^+ -ATPase (Oryctolagus cuniculus, UniProt P27112); test: Inhibition of H+/K+-ATPase enzyme activity in vitro; format: biochemical, rabbit; conditions: rabbit gastric microsomal H+/K+-ATPase, 5 min pre-incubation at 37° C., 4 mM ATP; read-out: IC50
T1 construct: The gastric mucous membrane was removed from rabbit; from tissue; host or cells: rabbit gastric mucosa, microsomal fraction (77,000 xg)
T1 sequence (P27112 2-1035 limits assumed): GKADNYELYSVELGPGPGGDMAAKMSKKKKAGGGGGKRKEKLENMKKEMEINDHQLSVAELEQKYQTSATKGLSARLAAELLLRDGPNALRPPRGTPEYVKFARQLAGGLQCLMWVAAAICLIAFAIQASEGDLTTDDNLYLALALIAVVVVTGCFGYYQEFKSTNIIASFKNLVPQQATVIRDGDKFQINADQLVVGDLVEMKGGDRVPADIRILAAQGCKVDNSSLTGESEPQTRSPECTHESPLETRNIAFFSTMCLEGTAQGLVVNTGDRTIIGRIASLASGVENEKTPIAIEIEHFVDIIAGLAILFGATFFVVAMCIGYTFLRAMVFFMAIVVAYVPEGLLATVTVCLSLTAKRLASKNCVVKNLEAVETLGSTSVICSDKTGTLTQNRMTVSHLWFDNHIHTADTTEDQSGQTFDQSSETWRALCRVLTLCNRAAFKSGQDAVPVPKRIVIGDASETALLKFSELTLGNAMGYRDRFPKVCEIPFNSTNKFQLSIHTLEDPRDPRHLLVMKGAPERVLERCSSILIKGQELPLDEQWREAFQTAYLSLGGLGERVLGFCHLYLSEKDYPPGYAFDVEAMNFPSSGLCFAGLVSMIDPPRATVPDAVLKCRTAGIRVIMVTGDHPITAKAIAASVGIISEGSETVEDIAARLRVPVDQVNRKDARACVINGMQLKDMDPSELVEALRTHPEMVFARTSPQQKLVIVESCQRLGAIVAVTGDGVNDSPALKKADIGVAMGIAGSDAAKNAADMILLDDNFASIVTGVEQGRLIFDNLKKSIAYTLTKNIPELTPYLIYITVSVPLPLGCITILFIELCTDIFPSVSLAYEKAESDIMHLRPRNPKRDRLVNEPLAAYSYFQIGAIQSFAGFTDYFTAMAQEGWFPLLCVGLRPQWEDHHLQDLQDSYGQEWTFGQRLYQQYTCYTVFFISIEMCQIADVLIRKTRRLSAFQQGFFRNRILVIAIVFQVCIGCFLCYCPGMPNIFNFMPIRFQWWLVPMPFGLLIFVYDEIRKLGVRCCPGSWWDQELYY
T1 sequence (P18597 whole entry partner): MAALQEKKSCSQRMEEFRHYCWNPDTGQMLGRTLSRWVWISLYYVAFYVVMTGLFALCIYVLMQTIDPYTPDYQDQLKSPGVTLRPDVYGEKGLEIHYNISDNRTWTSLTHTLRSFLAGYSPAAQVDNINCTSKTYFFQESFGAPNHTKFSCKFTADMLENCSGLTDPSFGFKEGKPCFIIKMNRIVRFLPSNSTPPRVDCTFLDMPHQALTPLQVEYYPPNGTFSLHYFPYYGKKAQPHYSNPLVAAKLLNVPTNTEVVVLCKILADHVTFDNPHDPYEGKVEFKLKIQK
Description: The gastric mucous membrane was removed from rabbit and then centrifuged with 77,000 xg using a ultracentrifuge to separate the microsomal fraction which was used as the source of H^+ /K^+ -ATPase enzyme for this test. 60 μg of H^+ /K^+ -ATPase was pre-incubated with the sample (the compound according to the present invention) for 5 minutes at 37° C. and then 4 mM ATP as the substrate and 4 mM Mg^++, 20 mM K^+ as the cofactor were added thereto. Then, the amount of inorganic phosphorus thus produced was determined using a spectrophotometer at 660 nm and converted into the amount of protein according to Lowry method. […]

[5] = system: gastric and duodenal ulcers; test: Anti-ulcer effect / pharmacological efficacy (general statements); conditions: in words
[6] = system: gastric juice secretion; test: Inhibition of gastric juice secretion, Shay method; format: in vivo, SD male rats; conditions: 5 h; for Gastric juice volume / Inhibition rate, gastric juice secretion: intraduodenal, rat; for Inhibition rate, gastric juice secretion: vs normal group
Description: as §6, §7

Structure (SMILES): COc1ccnc(C[S+]([O-])c2nc3cc(-n4cccc4)c(F)cc3[nH]2)c1C (stereo not drawn) [Compound 2, 2-[[(4-methoxy-3-methyl)-2-pyridinyl]methylsulfinyl]-5-(1H-pyrrol-1-yl)-6-fluoro-1H-benzimidazole]
- Acute toxicity (in words) ([1]; clinical symptoms, death and autopsy results, oral): very low as in Omeprazole
- Safety (conclusion) ([1]; in vivo): very safe compound
- LD50 ([1]; in vivo, po): > 5,000.0 mg/kg BW
- Visual autopsy view ([1]; in vivo, po): No specific abnormal autopsy view was observed
- LD50 [2]: > 5000 mg/kg
- Volume (inhibition of acidity) ([3]; 3 mg/kg): 34.60 ± 8.12 μEq/hr
- Inhibition rate, acidity ([3]; 3 mg/kg): 40.62%
- Volume (inhibition of acidity) ([3]; 10 mg/kg): 14.28 ± 4.28 μEq/hr
- Inhibition rate, acidity ([3]; 10 mg/kg): 75.35%
- Volume (inhibition of acidity) ([3]; 30 mg/kg): 5.72 ± 0.59 μEq/hr
- Inhibition rate, acidity ([3]; 30 mg/kg): 90.13%
- ED50 ([3]; Rattus norvegicus): 4.04 mg/kg
- IC50 [4]: 4.1 µM
- Anti-ulcer effect compared with Omeprazole [5]: anti-ulcer effect is similar to that of Omeprazole
- Gastric juice volume ([6]; 3 mg/kg): 2.11 ± 0.36 ml/100 g BW
- Inhibition rate, gastric juice secretion ([6]; 3 mg/kg): 35.28%
- Gastric juice volume ([6]; 10 mg/kg): 1.52 ± 0.19 ml/100 g BW
- Inhibition rate, gastric juice secretion ([6]; 10 mg/kg): 53.37%
- Gastric juice volume ([6]; 30 mg/kg): 1.03 ± 0.10 ml/100 g BW
- Inhibition rate, gastric juice secretion ([6]; 30 mg/kg): 68.40%
- ED50 ([6]; Rattus norvegicus): 8.18 mg/kg
